# Values quoted from earlier work, collected in US9597409B2, “Methods of treating cancer” (Abraxis BioScience, LLC, priority 2010, dated 2017).
# Test system: patients with locally advanced or metastatic NSCLC
# Conditions: single agents commonly used to treat NSCLC
structure (smiles),measurement,value
CCC1=C[C@@H]2CN(C1)Cc1c([nH]c3ccccc13)[C@@](C(=O)OC)(c1cc3c(cc1OC)N(C)[C@H]1[C@@](O)(C(=O)OC)[C@H](OC(C)=O)[C@]4(CC)C=CCN5CC[C@]31[C@@H]54)C2 [vinorelbine],response rate (RR),29.4%
